The source of these data is ChEMBL document CHEMBL4825698, “Identification of novel benzothiopyranones with ester and amide motifs derived from active metabolite as promising leads against Mycobacterium tuberculosis” (Eur J Med Chem, 2021).

A short description of data set [1]: Solubility of the compound in water measured after 20 mins by HPLC analysis. Format: physicochemical.
Data set [2] concerns Mycobacterium tuberculosis. The data set can be described thus: Antimycobacterial activity against Mycobacterium tuberculosis H37Rv assessed as bacterial growth inhibition incubated for 7 days by MABA assay. Format: functional. To be noted: 168 h, time 7 day.
A short description of data set [3]: Metabolic Stability in pooled human hepatocytes assessed as parent compound remaining after 30 mins. Particulars: read-out: Stabilty. In kind it is ADME, cell-based, Hepatocyte.
A short description of data set [4]: Metabolic stability in pooled mouse hepatocytes assessed as parent compound remaining after 30 mins. Format: ADME, cell-based, Hepatocyte. Particulars: read-out: Stabilty.
For data set [5], the system named is Mycobacterium tuberculosis. The data set can be described thus: Antimycobacterial activity against Mycobacterium tuberculosis H37Rv infected in BALB/c mouse model of acute tuberculosis infection assessed as log change in bacterial burden in mouse lung at 100 mg/kg, po via gavage administered for 3 weeks starting from day 10 post infection and administered 5 times a week (reference value: 4.94 +/-0.06 1og10CFU). In kind it is functional.

Data set [6] is described as follows: Toxicity in BALB/c mouse infected with Mycobacterium tuberculosis H37Rv assessed as body weight at 100 mg/kg, po via gavage administered for 3 weeks starting from day 10 post infection and administered 5 times a week (reference value: 24.59 +/- 0.61 g). Format: organism-based. Particulars: in vivo, 504 h.
Data set [7] has as its system Mycobacterium tuberculosis. The data set can be described thus: Antimycobacterial activity against Mycobacterium tuberculosis H37Rv infected in BALB/c mouse model of acute tuberculosis infection assessed as log change in bacterial burden in mouse lung at 25 mg/kg, po via gavage administered for 3 weeks starting from day 10 post infection and administered 5 times a week (reference value: 4.94=+/-0.06 1og10CFU). Format: functional.

Data set [8] can be described thus: Toxicity in BALB/c mouse infected with Mycobacterium tuberculosis H37Rv assessed as body weight at 25 mg/kg, po via gavage administered for 3 weeks starting from day 10 post infection and administered 5 times a week (reference value: 24.59 +/- 0.61 g). To be noted: in vivo, 504 h. Format: organism-based.

Values after ≈ are worked out from the molar mass of the structure shown.

On to `O=c1cc(N2CCN(CC3CCCCC3)CC2)sc2c([N+](=O)[O-])cc(C(F)(F)F)cc12`, for which the solubility (as a rule, how much of the substance goes into solution per volume) at 20 min in data set [1] was less than 0.1 µg/mL. Further, the MIC – broadly, the least concentration at which growth counts as inhibited – in data set [2] is less than 0.016 µg/mL. For the same molecule, the remaining at 0.5 h came out at 82.4% in data set [3] and 80.6% in data set [4].

In data set [1], `NC1CCC(CN2CCN(c3cc(=O)c4cc(C(F)(F)F)cc([N+](=O)[O-])c4s3)CC2)CC1` (configuration not stated) had a solubility at 20 min of 43.9 µg/mL (≈ 93.3 µM). In data set [2], the MIC was 0.49 µg/mL (≈ 1.04 µM). The remaining at 0.5 h in data set [3] amounted to 83.6%; in data set [4], 107%.

Take `O=c1cc(N2CCN(CC3CCC(O)CC3)CC2)sc2c([N+](=O)[O-])cc(C(F)(F)F)cc12` (configuration not stated): the solubility at 20 min in data set [1] is 8.3 µg/mL (≈ 17.6 µM). In data set [2], the MIC was 0.069 µg/mL (≈ 0.146 µM). Further, the Activity in data set [5] is listed as 4.06 log10CFU; in data set [6], 24.75 g. In addition, the remaining at 0.5 h in data set [3] came to 72.7%; in data set [4], 51.2%.

Take `NNC(=O)c1ccncc1` [ISONIAZID]: the MIC in data set [2] turned out to be 0.039 µg/mL (≈ 0.284 µM). Moreover, the figures for the Activity in data set [7] and in data set [8] were 130 log10CFU and 24.66 g, respectively.
